Results from patent US9920035B2, “Heterocyclic compounds, medicaments containing said compounds, use thereof and processes for the preparation thereof” (Boehringer Ingelheim International GmbH, priority 2011, dated 2018).

Biological target: T1, epithelial sodium channel (ENaC) (Mus musculus, UniProt Q61180+Q9WU38+Q9WU39)
T1 construct: Mouse kidney M-1 cells were cultivated in DMEM containing 5% FCS and 5 μM dexamethasone; endogenous in cells; host or cells: mouse kidney M-1 cells
T1 sequence (Q61180 1-699): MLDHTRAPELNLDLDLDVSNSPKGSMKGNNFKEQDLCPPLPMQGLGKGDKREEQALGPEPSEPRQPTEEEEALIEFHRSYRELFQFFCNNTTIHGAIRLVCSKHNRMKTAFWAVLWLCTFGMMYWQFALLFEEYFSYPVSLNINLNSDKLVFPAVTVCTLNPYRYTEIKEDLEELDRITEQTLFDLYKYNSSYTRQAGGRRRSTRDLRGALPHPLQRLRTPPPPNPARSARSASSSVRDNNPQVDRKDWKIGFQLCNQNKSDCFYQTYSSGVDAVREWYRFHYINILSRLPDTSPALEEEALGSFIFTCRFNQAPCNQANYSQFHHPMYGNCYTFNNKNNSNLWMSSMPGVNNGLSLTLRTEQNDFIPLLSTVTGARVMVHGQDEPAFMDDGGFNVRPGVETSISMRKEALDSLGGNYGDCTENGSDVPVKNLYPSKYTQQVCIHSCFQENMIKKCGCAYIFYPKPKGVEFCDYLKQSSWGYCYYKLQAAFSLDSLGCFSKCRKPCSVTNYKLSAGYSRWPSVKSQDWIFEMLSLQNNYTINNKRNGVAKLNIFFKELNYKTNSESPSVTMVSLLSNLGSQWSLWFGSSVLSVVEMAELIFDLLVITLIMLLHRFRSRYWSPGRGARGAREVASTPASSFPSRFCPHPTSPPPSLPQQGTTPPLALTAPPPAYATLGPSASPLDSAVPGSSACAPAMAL
T1 sequence (Q9WU38 1-638): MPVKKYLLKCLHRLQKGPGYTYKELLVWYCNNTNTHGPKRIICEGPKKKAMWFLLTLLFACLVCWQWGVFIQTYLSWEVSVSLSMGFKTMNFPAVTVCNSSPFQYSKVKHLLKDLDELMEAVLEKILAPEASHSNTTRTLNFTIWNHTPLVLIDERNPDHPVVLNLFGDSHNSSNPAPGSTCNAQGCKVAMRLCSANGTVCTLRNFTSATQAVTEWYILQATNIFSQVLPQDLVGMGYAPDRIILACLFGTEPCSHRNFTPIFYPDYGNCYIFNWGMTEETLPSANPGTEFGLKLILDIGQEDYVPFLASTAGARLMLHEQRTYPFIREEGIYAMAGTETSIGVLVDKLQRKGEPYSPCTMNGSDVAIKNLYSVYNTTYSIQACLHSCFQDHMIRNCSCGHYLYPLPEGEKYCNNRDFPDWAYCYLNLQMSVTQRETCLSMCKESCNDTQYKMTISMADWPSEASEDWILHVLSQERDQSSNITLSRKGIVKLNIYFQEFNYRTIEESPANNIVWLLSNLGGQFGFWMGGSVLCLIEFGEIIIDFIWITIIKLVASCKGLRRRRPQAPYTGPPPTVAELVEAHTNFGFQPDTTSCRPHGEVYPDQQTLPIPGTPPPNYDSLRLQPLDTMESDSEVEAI
T1 sequence (Q9WU39 1-655): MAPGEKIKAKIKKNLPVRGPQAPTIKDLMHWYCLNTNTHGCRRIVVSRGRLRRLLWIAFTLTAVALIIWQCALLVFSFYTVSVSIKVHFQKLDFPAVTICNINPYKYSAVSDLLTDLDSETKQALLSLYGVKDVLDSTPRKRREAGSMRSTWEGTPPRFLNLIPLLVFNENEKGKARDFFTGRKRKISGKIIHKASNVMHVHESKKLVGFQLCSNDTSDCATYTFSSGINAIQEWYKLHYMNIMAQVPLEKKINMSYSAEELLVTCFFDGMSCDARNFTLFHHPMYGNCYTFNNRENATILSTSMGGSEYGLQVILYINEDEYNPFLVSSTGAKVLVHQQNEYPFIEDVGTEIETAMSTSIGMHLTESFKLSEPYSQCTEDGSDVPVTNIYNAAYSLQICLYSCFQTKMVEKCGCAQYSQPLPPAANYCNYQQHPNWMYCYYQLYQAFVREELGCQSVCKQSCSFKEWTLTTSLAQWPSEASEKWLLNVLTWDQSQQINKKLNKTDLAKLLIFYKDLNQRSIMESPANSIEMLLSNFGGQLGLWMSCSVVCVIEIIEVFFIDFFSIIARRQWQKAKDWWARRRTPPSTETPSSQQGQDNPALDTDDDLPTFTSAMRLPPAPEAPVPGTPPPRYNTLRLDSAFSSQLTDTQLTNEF
Experiment: Ussing chamber: inhibition of amiloride sensitive short circuit current (I_sc) in M-1 cells
Type: cell-based
Settings: Mouse kidney M-1 cells on transwell filters, Ussing chamber at 37° C., compound added to the apical solution
Protocol: Mouse kidney M-1 cells were cultivated in DMEM containing 5% FCS and 5 μM dexamethasone for 10 to 12 days on polyester transwell filters. Filters were inserted into a teflon-coated well-plate which fit into the in-house ussing chamber system. Prior to measurement the medium of M-1 cells was replaced with Caco-2 transport buffer (Invitrogen, Germany). During measurements, the Ussing chamber temperature was kept at 37° C. Short circuit currents (I_sc) were measured in the voltage-clamp mode using an in-house built amplifier (Boehringer Ingelheim, Biberach) with the software package Lab View for data acquisition and analysis. The transepithelial electrical resistance (TEER) was determined by the application of voltage steps of ±5 mV every 5 sec. Compounds were administered at a final concentration of 3 μM or at increasing concentrations (1-3-10 μM) to the apical solution. At the end of each experiment the amiloride sensitive I_SC was measured by adding 3 μM amiloride to the apical compartment. Results are expressed as inhibition in percent of the amiloride effect or as IC50. Results are listed in tables 1 to 5 and further examples listed above.

Row | Compound | IC50
1 | CN1CCN(C(=O)N2CCC(CCc3ccccc3)(CN/C(N)=N/C(=O)c3nc(Cl)c(N)nc3N)CC2)CC1 [Example 1.53] | 14 nM
2 | COC(=O)c1ccc(CCC2(CNC(N)=NC(=O)c3nc(Cl)c(N)nc3N)CCNCC2)cc1 [Example 2.1] | 394 nM
3 | NCCC(=O)N1CCC(CCc2ccccc2)(CNC(N)=NC(=O)c2nc(Cl)c(N)nc2N)CC1 [Example 2.2] | 19 nM
4 | NCCCCC(=O)N1CCC(CCc2ccccc2)(CNC(N)=NC(=O)c2nc(Cl)c(N)nc2N)CC1 [Example 2.3] | 23 nM
5 | NCCCN1CCC(CCc2ccccc2)(CNC(N)=NC(=O)c2nc(Cl)c(N)nc2N)CC1 [Example 2.5] | 65 nM
6 | NCCCNC(=O)N1CCC(CCc2ccccc2)(CNC(N)=NC(=O)c2nc(Cl)c(N)nc2N)CC1 [Example 2.6] | 28 nM
7 | NCCNC(=O)N1CCC(CCc2ccccc2)(CNC(N)=NC(=O)c2nc(Cl)c(N)nc2N)CC1 [Example 2.7] | 16 nM
8 | NCCCCC(=O)N1CCC(CNC(N)=NC(=O)c2nc(Cl)c(N)nc2N)(Cc2ccccc2)CC1 [Example 2.8] | 61 nM
9 | NCCC(=O)N1CCC(CNC(N)=NC(=O)c2nc(Cl)c(N)nc2N)(Cc2ccccc2)CC1 [Example 2.9] | 93 nM
10 | COc1ccccc1C1(CNC(N)=NC(=O)c2nc(Cl)c(N)nc2N)CCNCC1 [Example 2.10] | 200 nM
11 | NC(=NC(=O)c1nc(Cl)c(N)nc1N)NCC1(Cc2ccccc2)CCNCC1 [Example 2.11] | 55 nM
12 | NCCNC(=O)N1CCC(CNC(N)=NC(=O)c2nc(Cl)c(N)nc2N)(Cc2ccccc2)CC1 [Example 2.12] | 17 nM
13 | NCCCNC(=O)N1CCC(CNC(N)=NC(=O)c2nc(Cl)c(N)nc2N)(Cc2ccccc2)CC1 [Example 2.13] | 25 nM
14 | NCCCN1CCC(CNC(N)=NC(=O)c2nc(Cl)c(N)nc2N)(Cc2ccccc2)CC1 [Example 2.14] | 120 nM
15 | COC(=O)CCC(=O)N1CCC(CCc2ccccc2)(CN/C(N)=N/C(=O)c2nc(Br)c(N)nc2N)CC1 [Example 10, 4-{4-[N′-(3,5-Diamino-6-bromo-pyrazine-2-carbonyl)-guanidinomethyl]-4-phenethyl-piperidin-1-yl}-4-oxo-butyric acid methyl ester] | 32 nM
16 | N/C(=N\C(=O)c1nc(Br)c(N)nc1N)NCC1(CCc2ccccc2)CCN(C(=O)CCC(=O)O)CC1 [Example 11, 4-{4-[N′-(3,5-Diamino-6-bromo-pyrazine-2-carbonyl)-guanidinomethyl]-4-phenethyl-piperidin-1-yl}-4-oxo-butyric acid] | 502 nM

More lines, now with the values ahead:

Row | IC50 | Compound
17 | 40 nM | NC(=NC(=O)c1nc(Cl)c(N)nc1N)NCC1(CCc2ccccc2)CCN(C(=O)CCC(=O)O)CC1 [Example 3.1]
18 | 149 nM | NC(=NC(=O)c1nc(Cl)c(N)nc1N)NCC1(CCc2ccccc2)CCN(C(=O)NCCC(=O)O)CC1 [Example 3.2]
19 | 10.1 nM | NC(=NC(=O)c1nc(Cl)c(N)nc1N)NCC1(CCc2ccccc2)CCN(C(=O)NCC(=O)O)CC1 [Example 3.3]
20 | 12 nM | N=C(N)NCCC(=O)N1CCC(CCc2ccccc2)(CNC(N)=NC(=O)c2nc(Cl)c(N)nc2N)CC1 [Example 4.1]
21 | 18 nM | N=C(N)NCCCCC(=O)N1CCC(CCc2ccccc2)(CNC(N)=NC(=O)c2nc(Cl)c(N)nc2N)CC1 [Example 4.2]
22 | 27 nM | C[N+](C)(C)CCCNC(=O)N1CCC(CCc2ccccc2)(CNC(N)=NC(=O)c2nc(Cl)c(N)nc2N)CC1 [Example 5.1]
23 | 74 nM | COC(=O)c1ccc(CCC2(CNC(N)=NC(=O)c3nc(Cl)c(N)nc3N)CCN(C(=O)NCC[N+](C)(C)C)CC2)cc1 [Example 5.2]
24 | 52 nM | C[N+]1(C)CCC(NC(=O)N2CCC(CCc3ccccc3)(CNC(N)=NC(=O)c3nc(Cl)c(N)nc3N)CC2)CC1 [Example 5.5]
25 | 97 nM | N/C(=N\C(=O)c1nc(Cl)c(N)nc1N)NCC1(CCc2ccccc2)CCN(C(=O)NCCCCCCNC(=O)N2CCC(CCc3ccccc3)(CN/C(N)=N/C(=O)c3nc(Cl)c(N)nc3N)CC2)CC1 [Example 6.1]
